This note sets out measurements from publication PMC7765401, “Antiproliferative and Antiangiogenic Properties of New VEGFR-2-targeting 2-thioxobenzo[g]quinazoline Derivatives (In Vitro)” (Molecules, 2020).

Series [1] concerns HepG2 human cancer-cell line. In words: MTT antiproliferative assay, HepG2. The series is classed as cell-based. Here is the method:
(§1) Selected compounds were evaluated in vitro for their antiproliferative activities against HepG2 and MCF-7 human cancer-cell lines using MTT assays. Cell viabilities and IC50 values were obtained and compared with those of the control, doxorubicin (Table 1).
(§2) The antiproliferative activity of the test compounds against HepG2, and MCF-7 human cancer-cell lines were evaluated by MTT assay. The detailed methodology procedure was reported. […]

The test system of series [2] is MCF-7 human cancer-cell line. Briefly: MTT antiproliferative assay, MCF-7. The series is classed as cell-based. Here is the method:
as §1, §2

Where [3] appears, read: MTT, 48 h of exposure, read-out: IC50 (μM) ± SD HepG2.
Where [4] appears, read: Table S5, read-out: pIC50(exp) HepG2 (converted).
The mark [5] stands for this setting: MCF7, MTT, 48 h of exposure, read-out: IC50 (μM) ± SD MCF-7.
[6] abbreviates: MCF7, Table S5, read-out: pIC50 (exp) MCF7 (converted).

Read-outs that look alike come from different tables or passages of the source.

`Cn1c(=S)[nH]c2cc3ccccc3cc2c1=O` [Compound 1, 3-Methyl-2-thioxo-2,3-dihydrobenzo[g]quinazolin-4(1H)-one]: the IC50 is 40.4 ± 4.1 µM in series [1] (setting [3]), 40.4 µM in series [1] (setting [4]), 10.7 ± 1.1 µM in series [2] (setting [5]) and 10.7 µM in series [2] (setting [6]).

In the case of `CCn1c(=S)[nH]c2cc3ccccc3cc2c1=O` [Compound 2, 3-Ethyl-2-thioxo-2,3-dihydrobenzo[g]quinazolin-4(1H)-one], the IC50 is 36.1 ± 3.6 µM in series [1] (setting [3]), 36.1 µM in series [1] (setting [4]), 10.5 ± 0.5 µM in series [2] (setting [5]) and 10.5 µM in series [2] (setting [6]).

Take `CCSc1nc2cc3ccccc3cc2c(=O)n1C` [Compound 3, 2-(Ethylthio)-3-methylbenzo[g]quinazolin-4(3H)-one]: the melting point was in the range of 115 to 117 °C. In addition, the IC50 in series [1] (setting [3]) stood at 29.9 ± 2.5 µM. In addition, the IC50 in series [1] (setting [4]) is 29.9 µM. The IC50 in series [2] (setting [5]) is 10.1 ± 0.7 µM. For the same compound, in series [2] (setting [6]), the IC50 is 10.1 µM.

The compound `Cn1c(SCc2ccccc2)nc2cc3ccccc3cc2c1=O` [Compound 4, 2-(Benzylthio)-3-methylbenzo[g]quinazolin-4(3H)-one] showed a melting point of 150 to 152 °C. Moreover, the IC50 in series [1] (setting [3]) is 34.8 ± 3.1 µM. For the same compound, the IC50 in series [1] (setting [4]) was 34.8 µM. The IC50 in series [2] (setting [5]) is 10.2 ± 1.1 µM. Besides, the IC50 in series [2] (setting [6]) was 10.2 µM.

The compound `Cc1cccc(CSc2nc3cc4ccccc4cc3c(=O)n2C)c1` [Compound 5, 3-Methyl-2-((3-methylbenzyl)thio)benzo[g]quinazolin-4(3H)-one] showed a melting point of 155 to 157 °C. Moreover, the IC50 in series [1] (setting [3]) came out at 31.3 ± 3.1 µM. The IC50 in series [1] (setting [4]) was 31.3 µM. Besides, the IC50 in series [2] (setting [5]) came out at 10.6 ± 0.7 µM. Moreover, in series [2] (setting [6]), the IC50 is 10.6 µM.

As for `Cn1c(SCc2ccc(Cl)cc2)nc2cc3ccccc3cc2c1=O` [Compound 6, 2-((4-Chlorobenzyl)thio)-3-methylbenzo[g]quinazolin-4(3H)-one], the melting point lay in the range of 190 to 192 °C. The IC50 in series [1] (setting [3]) turned out to be 28.8 ± 2.6 µM. For the same compound, the IC50 in series [1] (setting [4]) was 28.8 µM. Also, the IC50 in series [2] (setting [5]) amounted to 10.7 ± 1.1 µM. In series [2] (setting [6]), the IC50 is 10.7 µM.

`Cn1c(SCc2ccc(C#N)cc2)nc2cc3ccccc3cc2c1=O` [Compound 7, 4-(((3-Methyl-4-oxo-3,4-dihydrobenzo[g]quinazolin-2-yl)thio)methyl)benzonitrile] showed a melting point of 201 to 203 °C. For the same compound, the IC50 in series [1] (setting [3]) worked out at 36 ± 3.1 µM. The IC50 in series [1] (setting [4]) is 36 µM. Further, the IC50 in series [2] (setting [5]) is 9.8 ± 1.2 µM. In addition, the IC50 in series [2] (setting [6]) is 9.8 µM.

On to `COc1cccc(CSc2nc3cc4ccccc4cc3c(=O)n2C)c1` [Compound 8, 2-((3-Methoxybenzyl)thio)-3-methylbenzo[g]quinazolin-4(3H)-one], for which the IC50 in series [1] (setting [3]) is 31.3 ± 3.1 µM; in series [1] (setting [4]), 31.3 µM; in series [2] (setting [5]) it was 10.9 ± 0.9 µM; in series [2] (setting [6]), 10.9 µM.

Turning to `CCSc1nc2cc3ccccc3cc2c(=O)n1CC` [Compound 9, 3-Ethyl-2-(ethylthio)benzo[g]quinazolin-4(3H)-one], the melting point lay within 107 to 109 °C. Moreover, in series [1] (setting [3]), the IC50 worked out at 31.7 ± 3.1 µM. Also, the IC50 in series [1] (setting [4]) was 31.7 µM. Also, the IC50 in series [2] (setting [5]) stood at 10.2 ± 0.6 µM. For the same compound, the IC50 in series [2] (setting [6]) is 10.2 µM.

As for `Cn1c(NN)nc2cc3ccccc3cc2c1=O` [Compound 16], the IC50 in series [1] (setting [3]) was 28.9 ± 2.3 µM; in series [1] (setting [4]), 28.9 µM; in series [2] (setting [5]) it was 10.4 ± 1.1 µM; in series [2] (setting [6]), 10.4 µM.

With `CCn1c(NN)nc2cc3ccccc3cc2c1=O` [Compound 17], the IC50 in series [1] (setting [3]) was 29.8 ± 2.1 µM; in series [1] (setting [4]), 29.8 µM; in series [2] (setting [5]), 10.1 ± 0.7 µM; in series [2] (setting [6]), 10.1 µM.

In the case of `COc1cccc2c1C(=O)c1c(O)c3c(c(O)c1C2=O)C[C@@](O)(C(=O)CO)C[C@@H]3O[C@H]1C[C@H](N)[C@H](O)[C@H](C)O1` [Doxorubicin, reference compound], the values for the IC50 in series [1] (setting [3]) and in series [2] (setting [5]) were 28.5 ± 1.9 µM and 10.3 ± 0.8 µM, respectively.
